The target of series [1] is T1, ANXA2 over ANXA1 and ANXA3 (Homo sapiens, UniProt P07355).
T1 construct: GST; purchased MyBioSource, Inc
Briefly: Annexin selectivity, fluorescent gel binding. To be noted: ANXA2 vs ANXA1 and ANXA3. As for the experimental part: For fluorescent gel binding experiments, 1 μg recombinant annexin A2 protein was incubated with LS301 or cypate (10 μM) at 37° C. for the periods indicated. Samples were subjected to SDS-PAGE on precast gels (Bio-Rad, Hercules, CA), and gels were imaged for near-infrared fluorescence (800 nm) using a Pearl Small Animal Imager (LI-COR Biosciences, Lincoln, NE, USA). For competitive binding experiments, Annexin A2-GST, annexin A1, or annexin A3 (1.0 μg protein per sample) was pre-incubated with or without 2.5 mM of LS637 (non-fluorescent LS301 analog; blocking peptide) in binding buffer (25 mM Tris-HCl pH 7.4, 150 mM NaCl, 1 mM MgCl2, 1 mM CaCl2) for 1 hour at 37° C. Ten μM. LS301 was then added to each sample. After incubation for 2 hours at 37° C., proteins were subjected to SDS-PAGE and imaged fluorescently. For some experiments, LS301 was incubated with 4T1 tumor cells before SDS-PAGE.

Series [2] deals with lung (A549), breast (MDA-MB-231 and 4T1), and myeloid leukemia (HL60) cell lines. Briefly: Cellular uptake in cancer cell lines, live-cell imaging. It is filed as cell-based. To be noted: A549, MDA-MB-231, 4T1, HL60. As to the method: In general, cultured cancer cells were grown and incubated with the indicated amount of probe in Lab-Tek 8-chambered slides for the indicated time durations. Cells were washed with PBS at selected time points and underwent conventional slide preparation, ICC if indicated, and viewing under epifluorescence or confocal. For live-cell imaging of LS301, internalization at 37° C. in human dermal fibroblasts (Coriell Cell Technologies) and tumor cells including 4T1luc, MDA-MB-231, 5TGM, A549, and HL60 (ATCC) cells were cultured in appropriate media supplemented with 10% […] and penicillin/streptomycin and incubated at 37° C. in 5% CO2 incubator. The cells were grown on Lab-Tek 8-chamber slides (Nunc Inc. Rochester, NY) in the culture medium overnight before the experiment. The compounds were dissolved in 20% DMSO in […] PBS (pH 7.4) (Sigma, St. Louis, MO) for stocking solution and mixed with culture medium to reach the final concentration. Cells were incubated with 1 μM compounds in chamber slides at different time points at 37° C. After LS301 treatment, the culture media was removed and followed by adding culture media containing SYTO 13 nuclear dye from (Thermo Fisher Scientific, Waltham, MA) for 45 minutes at 37° C. For assessing cellular colocalization of LS301 with lipid rafts, the Vybrant AlexaFluor 488 Lipid Raft Labeling Kit (Thermo Fisher Scientific, Waltham, MA, USA) was used per the manufacturer's instructions. […]. LS301 and AlexaFluor 488 fluorescence were imaged using the cypate filter set (Ex/Em 750-800 nm/818-873 nm) and fluorescein isothiocyanate (FITC) filter set (Ex/Em 460-500/510-560 nm), respectively.

Series [3] deals with cells expressing wild-type ANXA2 or mutant ANXA2 (Y23A). The series can be described thus: LS301 internalization with insulin in cells expressing wild-type or mutant ANXA2 (Y23A). It is filed as cell-based. As to the method: For LS301 cell internalization studies involving insulin treatment, cells were grown on Lab-Tek slides overnight. HEK 293T cells (or in some cases 4T1 cells) were maintained in DMEM medium supplemented with 10% fetal bovine serum and 100 units/mL penicillin. After DNA transfection, the HEK 293TAnxa2-WT-GFP and HEK 293TAnxa2-Y23A-GFP cells were maintained in Dulbecco's Modified Eagle's medium (DMEM) medium with 500 μg/mL G418, 10% fetal bovine serum (FBS), and 100 units/mL penicillin. The medium was changed, and cells were grown in serum-starved conditions overnight. Cells were then cultivated with or without 100 nM insulin for 4 h. Then 1 μM of LS301 was added to each sample to incubated for 4 hours or 24 hours at 37° C. Cells were imaged using an FV1000 confocal microscope, and the mean fluorescence intensities (Ex/Em=488/495 nm; Ex/Em=590/617 nm; Ex/Em=780/805-830 nm) were determined using the FV1000 software.

The test system of series [4] is breast cancer patient-derived xenograft. The series can be described thus: In vivo NIR imaging of tumor retention. On the set-up: species or system mice. As for the experimental part:
To establish the various tumor models, nude, Balb/c, or C57BL6 mice were injected with 10^5-10^7 tumor cells subcutaneously on unilateral or bilateral flanks. In some cases, spontaneous tumor models were used. Animals injected subcutaneously with saline served as sham tumor controls. For near-infrared imaging, 100 μL volumes of 60 μM LS301 or cypate in PBS were injected intravenously by lateral tail vein, and animals were imaged using a Pearl Small Animal Imager (LI-COR Biotechnology, Lincoln, NE, USA) at the indicated time points. In some experiments, probes were formulated in 1% albumin in PBS. Animals were shaved using commercially available hair removal equipment and products before imaging. For experiments involving further tissue analysis, animals were anesthetized with isoflurane and euthanized by cervical dislocation under anesthesia. Organs were harvested by surgical dissection. For quantitative organ biodistribution studies, individual regions of interest were drawn around each organ of interest, and fluorescence was quantified using the Pearl Small Animal Imager software.

The next series relates to tumor. Briefly: NIR contrast evaluation of DMSO and ethanol-based formulations. It is filed as in vivo. The text has this:
No difference in histology between the various solvents was seen.

Series [5] in a line: Solubility and dilution stability of LS301 stock solutions. The class given is physicochemical. To be noted: transparent solution, no precipitate after centrifugation. As for the experimental part:
At room temperature (˜25° C.), 200 μL of DMSO was added to 0.5 mg LS301 and vortexed for about 1 minute to homogenize. The solution was centrifuged to remove any non-dissolved components. The concentration was measured via absorbance.
Generally, solution concentrations ranged between 290 and 330 μM. This concentrated solution was diluted dropwise into 800 μL phosphate-buffered saline (PBS) calculated such that the final concentration was 60 μM LS301 and that the final concentration was 20% DMSO/80% PBS by volume (“20% DMSO”).
A 1:1 PEG400/Ethanol solution (v/v) was prepared by mixing 4 mL of PEG400 and 4 mL of ethanol and vortexing at high speed for 1 minute. 200 μL of this 1:1 solution was added to about 0.5 mg of LS301 to produce a transparent solution (>300 μM). No precipitate was observed after centrifugation.
LS301's solubility in ethanol ranged near the cutoff for producing a 20% ethanol/PBS solution. […] The 1:1 PEG400/ethanol solution could maintain stability up to about 1-to-16 dilution. In vivo, a screening test was done by IV injection of 60 μM solution into a Balb/c mouse with two 4T1luc tumors dorsally injected. […] To confirm LS301's multitumor affinity in the new solvent, solutions were tested against HT1080, A431, and DBT tumor-bearing mice.

Positions of bridges follow the written chain, without caps; N, C: chain ends. Non-standard residues stand in square brackets, D forms with d. Residues, ends and D or L forms follow the SMILES beside them. *: point of attachment. X1 = CC1(C)C(/C=C/C=C/C=C/C=C2/N(CCC(=O)*)c3ccc4ccccc4c3C2(C)C)=[N+](CCC(=O)[O-])c2ccc3ccccc3c21 Where only a bound is given, the exact number is not on record here.

T1 sequence (P07355 whole entry): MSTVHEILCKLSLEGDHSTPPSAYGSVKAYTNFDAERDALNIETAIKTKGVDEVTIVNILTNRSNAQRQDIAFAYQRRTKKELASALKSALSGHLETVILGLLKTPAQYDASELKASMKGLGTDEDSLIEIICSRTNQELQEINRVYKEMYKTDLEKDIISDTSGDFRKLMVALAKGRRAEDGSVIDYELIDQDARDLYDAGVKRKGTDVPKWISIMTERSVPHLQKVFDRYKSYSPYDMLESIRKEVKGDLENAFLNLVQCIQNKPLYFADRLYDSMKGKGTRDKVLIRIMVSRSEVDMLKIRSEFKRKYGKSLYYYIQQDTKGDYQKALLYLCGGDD

With `CC1(C)C(/C=C/C=C/C=C/C=C2/N(CCC(=O)N[C@@H]3CSSC[C@@H](C(=O)N[C@@H](CCCCN)C(=O)O)NC(=O)[C@@H]4CCCN4C(=O)[C@H](CO)NC(=O)[C@H](CC(=O)O)NC(=O)[C@H](CCCNC(=N)N)NC(=O)CNC3=O)c3ccc4ccccc4c3C2(C)C)=[N+](CCC(=O)[O-])c2ccc3ccccc3c21` [LS301, cypate-cyclic (DCys-Gly-Arg-Asp-Ser-Pro-Cys)-Lys-OH] (X1-[dC]GRDSPCK-OH; disulfide 1-7), the annexin binding preference entry in series [1] is “preferentially targets ANXA2 over ANXA1 and ANXA3”. In series [2], the “time over which maximum cellular uptake is maintained” value is given as “over 24 hours” and the “time to maximum concentration of cellular uptake” value amounted to 12 h. Further, the “cellular uptake of LS301, mutant ANXA2 (Y23A) cells” value in series [3] (insulin stimulation) is given as “minimal LS301 uptake”. The “cellular uptake of LS301, wild-type ANXA2 cells” value in series [3] (stimulation with insulin) was “increased pANXA2 expression and cellular uptake of LS301”. Further, the “time remaining in the tumor lesion” value in series [4] (breast cancer patient-derived xenograft) is reported as “over 96 hours”. Further, in series [4] (small tumors (<5 mm)), the tumor coverage result was “about 100%”. Moreover, the “tumor uptake compared to renal or hepatic clearance” value with tumor (20% PEG400 solutions) is “increased tumor uptake”. Also, in the series on tumor (in 20% PEG400), the NIR contrast entry is on record as “significantly increased contrast”. Further, the clearance mechanism entry in the series with tumor (in vivo) is “cleared via renal and hepatic mechanisms”. The “solution concentration in 1:1 PEG400/Ethanol” value in series [5] is greater than 300 µM.

Values taken from patent US12121596B2, “Near infrared fluorescent dyes, formulations and related methods” (Washington University, priority 2019, dated 2024).
